For three compounds, IC50, CC50 and Activity results are on record in ChEMBL document CHEMBL2396569, “6'-Methyl-5'-homoaristeromycin: a structural variation of the anti-orthopox virus candidate 5'-homoaristeromycin” (Bioorg Med Chem, 2013).

One data set deals with Cowpox virus. In words: Antiviral activity against Cowpox virus infected in african green monkey Vero 76 cells assessed as inhibition of virus-induced cytopathic effect after 3 days by microscopic analysis. The data set is classed as functional, organism-based. Conditions: 72 h. In general terms: Cytopathic effects are the visible damage that an infection or toxin causes in cultured cells.

A short description of data set [1]: Cytotoxicity against african green monkey Vero 76 cells after 3 days by neutral red uptake assay. Particulars: chlorocebus sabaeus. The data set is classed as cell-based.
Another data set relates to Vaccinia virus. In words: Antiviral activity against Vaccinia virus infected in african green monkey Vero 76 cells assessed as inhibition of virus-induced cytopathic effect after 3 days by microscopic analysis. The class given is functional, organism-based. Conditions: Orthopoxvirus vaccinia, 72 h.
For another data set, the system named is Coxsackievirus B4. In words: Antiviral activity against Human coxsackievirus B4. The data set is classed as functional, organism-based.
Another data set relates to Hepatitis B virus. Briefly: Antiviral activity against Hepatitis B virus. The class given is functional, organism-based.
Data set [2] deals with Influenza A virus. Briefly: Antiviral activity against Influenza A virus H3N2. The data set is classed as functional, organism-based.
The test system of a further data set is Punta Toro virus. Briefly: Antiviral activity against Punta Toro virus. The class given is functional, organism-based.
In the next data set the test system is Enterovirus. In words: Antiviral activity against Rhinovirus. The data set is classed as functional, organism-based.
The subject of a further data set is Human respirovirus 3. In words: Antiviral activity against Human parainfluenza virus 3. The class given is functional, organism-based.
Data set [3] in a line: Cytotoxicity against human HEL cells after 3 days by neutral red uptake assay. The class given is cell-based.
A further data set relates to Pichinde virus. In words: Antiviral activity against Pichinde virus. The data set is classed as functional, organism-based.
Data set [4] concerns Influenza A virus. In words: Antiviral activity against Influenza A virus H1N1. The class given is functional, organism-based.
A further data set relates to Human alphaherpesvirus 1. In words: Antiviral activity against Herpes simplex virus 1. The data set is classed as functional, organism-based.
The next data set has as its system Feline coronavirus. Briefly: Antiviral activity against Feline coronavirus. The data set is classed as functional, organism-based.
The test system of another data set is Reovirus sp. Briefly: Antiviral activity against Reovirus. The class given is functional, organism-based.
A short description of data set [5]: Cytotoxicity against human Daudi cells after 3 days by neutral red uptake assay. The class given is cell-based.
The subject of a further data set is Sindbis virus. In words: Antiviral activity against Sindbis virus. The class given is functional, organism-based.
The subject of another data set is Hepatitis C virus. Briefly: Antiviral activity against Hepatitis C virus. The class given is functional, organism-based. Particulars: Hepacivirus hominis.
A further data set concerns Human alphaherpesvirus 3. Briefly: Antiviral activity against Varicella zoster virus. The class given is functional, organism-based.
Data set [6] concerns unidentified human coronavirus. In words: Antiviral activity against Human coronavirus. The data set is classed as functional.
For another data set, the system named is Dengue virus. In words: Antiviral activity against Dengue virus. The class given is functional, organism-based.
The test system of another data set is Measles morbillivirus. Briefly: Antiviral activity against Measles virus. The data set is classed as functional, organism-based.
The test system of the next data set is Human betaherpesvirus 5. In words: Antiviral activity against Human cytomegalovirus. The class given is functional, organism-based.
The next data set has as its system Yellow fever virus. Briefly: Antiviral activity against Yellow fever virus. The data set is classed as functional, organism-based.
A further data set has as its system unidentified adenovirus. Briefly: Antiviral activity against Adenovirus. The data set is classed as functional, organism-based.
For the next data set, the system named is Human gammaherpesvirus 4. In words: Antiviral activity against Epstein Barr virus infected in human Daudi cells assessed as inhibition of virus-induced cytopathic effect after 3 days by microscopic analysis. Conditions: human gammaherpesvirus 4, Daudi, 72 h. The data set is classed as functional, organism-based.
The next data set has as its system Human alphaherpesvirus 2. In words: Antiviral activity against Herpes simplex virus 2. The class given is functional, organism-based.
In data set [7] the test system is Venezuelan equine encephalitis virus. In words: Antiviral activity against Venezuelan equine encephalitis virus. The class given is functional, organism-based.
The subject of a further data set is West Nile virus. Briefly: Antiviral activity against West Nile virus. The class given is functional, organism-based.
In data set [8] the test system is Vesicular stomatitis virus. In words: Antiviral activity against Vesicular stomatitis virus infected in human HEL cells assessed as inhibition of virus-induced cytopathic effect after 3 days by microscopic analysis. The class given is functional, organism-based. Particulars: 72 h.
The subject of the next data set is Influenza B virus. In words: Antiviral activity against Influenza B virus. The data set is classed as functional, organism-based.
The subject of data set [9] is Respiratory syncytial virus. In words: Antiviral activity against Respiratory syncytial virus. The class given is functional, organism-based.

Calls of active or inactive are those of the source. The rule behind the calls is not given here. Bounds are passed on as bounds.

In the case of `Nc1ncnc2c1ncn2[C@@H]1C[C@H](CCO)[C@@H](O)[C@H]1O`, the half-inhibitory concentration (IC50) with Cowpox virus is 0.49 µM; in the data set on Vaccinia virus, 4.29 µM. In [1], this compound came in with a CC50 at 72 h of more than 300 µM.

Consider `C[C@@H](O)C[C@H]1C[C@@H](n2cnc3c(N)ncnc32)[C@H](O)[C@@H]1O` (mixture of isomers), for which the 50% inhibitory concentration (IC50) in the data set on Cowpox virus worked out at 223 µM; with Human gammaherpesvirus 4, 6.6 µM; in [8] it was 4.8 µM; in the data set on Vaccinia virus it was 24 µM. Besides, the outcome with Coxsackievirus B4, in the data set with Hepatitis B virus, in the data set on Influenza A virus [2], with Punta Toro virus, in the data set with Enterovirus and with Human respirovirus 3 was inactive. In addition, the result in the data set with Pichinde virus, in the data set on Influenza A virus [4], with Human alphaherpesvirus 1, in the data set on Feline coronavirus, in the data set on Reovirus sp. and in the data set with Sindbis virus was inactive. The outcome (in the data set on Hepatitis C virus; with Human alphaherpesvirus 3; in data set [6]; in the data set with Dengue virus; in the data set with Measles morbillivirus; in the data set on Human betaherpesvirus 5) was inactive. Besides, the outcome (in the data set on Yellow fever virus; with unidentified adenovirus; with Human alphaherpesvirus 2; in data set [7]; in the data set with West Nile virus; with Influenza B virus) was inactive. In [9], the result was inactive. The CC50 at 72 h in [1], in data set [3] and in data set [5] was more than 300 µM in each case.

Consider `C[C@H](O)C[C@H]1C[C@@H](n2cnc3c(N)ncnc32)[C@H](O)[C@@H]1O` (mixture of isomers), for which the half-inhibitory concentration (IC50) with Cowpox virus was 164 µM; in the data set on Human gammaherpesvirus 4, 6.4 µM; in data set [8], 1.6 µM; with Vaccinia virus it was 4.8 µM. Moreover, the outcome in the data set with Coxsackievirus B4, with Hepatitis B virus, with Influenza A virus [2], in the data set with Punta Toro virus, in the data set with Enterovirus and in the data set with Human respirovirus 3 was inactive. Moreover, the result in the data set on Pichinde virus, in the data set on Influenza A virus [4], in the data set with Human alphaherpesvirus 1, with Feline coronavirus, with Reovirus sp. and in the data set on Sindbis virus was inactive. For the same compound, the outcome (in the data set with Hepatitis C virus; in the data set on Human alphaherpesvirus 3; in [6]; in the data set on Dengue virus; in the data set on Measles morbillivirus; with Human betaherpesvirus 5) was inactive. Moreover, the result (in the data set on Yellow fever virus; in the data set with unidentified adenovirus; in the data set with Human alphaherpesvirus 2; in data set [7]; in the data set with West Nile virus; with Influenza B virus) was inactive. Moreover, the outcome in data set [9] was inactive. Further, the half-maximal cytotoxic concentration (CC50) at 72 h in [1], in data set [3] and in data set [5] was more than 300 µM each time.

What is called IC50 is the concentration that inhibits the measured activity by half. Usually CC50 stands for the concentration giving 50% cytotoxicity.
